Experimental data taken from patent US8883415B2, “Aza-benzazolium containing cyanine dyes” (Life Technologies Corporation, priority 1999, dated 2014).

Columns and labels:
Format in all cases: binding
[1] = test system: 18-base oligodeoxynucleotide sequencing primer; test: Detecting oligonucleotides in solution
Experimental: Selected dyes of the invention are dissolved in DMSO at 1-10 micromolar concentration, then diluted into 10 mM Tris-HCl, 1 mM EDTA, pH 7.5 to a final optical density of 0.1 or 0.01 at 530 nm or 540 nm. The resulting dye solutions are combined with an equal volume of an 18-base oligodeoxynucleotide sequencing primer solution at concentrations of 0.1 ng/mL to 1 microgram/mL in the same buffer. The resulting mixture is mixed gently and incubated for 5-60 minutes at room temperature, protected from light, and the sample fluorescence is measured in a fluorescence microplate reader.

[2] = test system: double-stranded bacteriophage λ cl857 DNA that is digested with HindIII restriction endonuclease; test: Detecting nucleic acids in gels; conditions: POLAROID 667 B&W film; FOTODYNE 254 nm epi.; 1 micromolar dye
[3] = test system: double-stranded bacteriophage λ cl857 DNA that is digested with HindIII restriction endonuclease; test: Detecting nucleic acids in gels; conditions: 1 micromolar dye
Experimental: DNA samples are loaded onto agarose or polyacrylamide gels and electrophoresed using standard conditions. Selected dyes of the invention are dissolved in DMSO at a concentration of 1-10 micromolar and diluted into 0.5×TBE buffer to a final concentration of 1 micromolar dye. Gels are incubated for 20-90 minutes in this staining solution, with gentle agitation, at room temperature, protected from light. Nucleic acids are visualized by transillumination at 300 nm, followed by direct visual detection or photography using Polaroid black-and-white print film. Nucleic acids are alternatively visualized by scanning using a FMBIO II laser scanner with a 532 nm frequency-doubled YAG laser source or a charge-coupled device camera system coupled with an ultraviolet (300 nm) light source, or a visible light transilluminator.

[4] = test system: Escherichia coli ribosomal RNA; test: Detecting RNA in solution
Experimental: Selected dyes of the invention are dissolved in DMSO at 1-10 micromolar concentration, then diluted into 10 mM Tris-HCl, 1 mM EDTA, pH 7.5 to a final optical density of 0.1 or 0.01 at 530 nm or 540 nm. These dye solutions are combined with an equal volume of Escherichia coli ribosomal RNA at concentrations ranging from 0.25 ng/mL to 1 microgram/mL in microplate wells. The resulting mixtures are mixed gently and incubated for 5-60 minutes at room temperature, protected from light, and the sample fluorescence is measured.

double-stranded DNA = test: Detecting double-stranded DNA in solution (fluorescence microplate reader)
Experimental: Samples containing 0.1 ng/mL to 1 microgram/mL double-stranded DNA are prepared in 10 mM Tris-HCl, 1 mM EDTA, pH 7.5. The selected dye of the invention is dissolved in DMSO at a concentration of 1-10 mM and then diluted into the same buffer at a concentration sufficient to achieve final optical densities of 0.1 and 0.01 at 500 nm, 530 nm, 540 nm or 560 nm. Equal volumes (100 microliters each) of DNA sample solution and dye solution at each concentration are combined and mixed gently at room temperature in a microplate well.
Samples are allowed to equilibrate for 5-60 minutes, protected from light, and the fluorescence of the sample is measured using a fluorescence microplate reader. DNA concentration is determined by comparison of the sample fluorescence with a standard curve obtained with that dye for each dye concentration. The sensitivity limit of several dyes in this assay is shown (Table 5).

[5] = Excitation 540 nm/Emission 570 nm
[6] = BOEHRINGER MANNHEIM LUMIIMAGER CCD, 300 nm trans., 520 nm em.
[7] = BOEHRINGER MANNHEIM LUMIIMAGER CCD, 300 nm trans., 545 nm em
[8] = HITACHI FMBIO II laser scanner, 532 nm freq.-doubled YAG laser
[9] = POLAROID 667 B&W film, DARK READER visible light box
[10] = POLAROID 667 B&W film, FOTODYNE 300 nm trans.
[11] = Excitation 500 nm/Emission 560 nm
[12] = Excitation 560 nm/Emission 585 nm
[13] = Excitation 530 nm/Emission 560 nm

`CCN(CC)Cc1ccc(C2=C/C(=C\c3nc4c(ccc[n+]4C)o3)c3cc(OC)ccc3N2C)cc1.[I-]` [Compound 23] was tested, and the “Sensitivity Limit, High dye concentration (0.1 OD)” value (“Sensitivity Limit … (0.1 OD)” below) [1, 5] was <10 ng/mL, the “Sensitivity Limit, Low dye concentration (0.01 OD)” value (“Sensitivity Limit … (0.01 OD)” for short) [1, 5] was 1.0 ng/mL and the “Sensitivity for detecting double-stranded DNA in agarose gels” value (from here on “Sensitivity … in agarose gels”) [2] was 60 pg. For the same compound, the “Sensitivity … in agarose gels” value [3, 6] was 830 pg, the “Sensitivity … in agarose gels” value [3, 7] was 100 pg and the “Sensitivity … in agarose gels” value [3, 8] was 5 pg. The “Sensitivity … in agarose gels” value [3, 9] was 240 pg, the “Sensitivity … in agarose gels” value [3, 10] was 120 pg and the “Sensitivity Limit … (0.1 OD)” value [4, 5] was 200 ng/mL. For the same compound, the “Sensitivity Limit … (0.01 OD)” value [4, 5] was 2.5 ng/mL, the “Sensitivity Limit … (0.1 OD)” value (double-stranded DNA; [5]) was <10 ng/mL and the “Sensitivity Limit … (0.01 OD)” value (double-stranded DNA; [5]) was 0.2 ng/mL.

With `CC1/C(=C/c2nc3c(ccc[n+]3C)o2)C=Cc2ccccc21.Cc1ccc(S(=O)(=O)[O-])cc1` (stereo not drawn) [Compound 53] the “Sensitivity Limit … (0.1 OD)” value (double-stranded DNA; [11]) was 10 ng/mL and the “Sensitivity Limit … (0.01 OD)” value (double-stranded DNA; [11]) was >10 ng/mL.

For `COc1ccc2c(c1)/C(=C/c1nc3c(ccc[n+]3C)o1)C=C(c1ccccc1)N2C.[I-]` [Compound 19], the “Sensitivity Limit … (0.1 OD)” value [1, 5] was <10 ng/mL, the “Sensitivity Limit … (0.01 OD)” value [1, 5] was >10 ng/mL and the “Sensitivity Limit … (0.1 OD)” value [4, 5] was 20 ng/mL. The “Sensitivity Limit … (0.01 OD)” value [4, 5] was 10 ng/mL, the “Sensitivity Limit … (0.1 OD)” value (double-stranded DNA; [5]) was <10 ng/mL and the “Sensitivity Limit … (0.01 OD)” value (double-stranded DNA; [5]) was 0.5 ng/mL.

With `CN1C=CC(Cc2sc3c(F)nc(F)c(F)c3[n+]2C)c2ccccc21.[I-]` (stereo not drawn) [Compound 49] the “Sensitivity Limit … (0.1 OD)” value (double-stranded DNA; [11]) was 20 ng/mL and the “Sensitivity Limit … (0.01 OD)” value (double-stranded DNA; [11]) was >10 ng/mL.

`CN1C(Cl)=C/C(=C\c2nc3c(cc(Cl)c[n+]3C)s2)c2ccccc21.[Cl-]` [Compound 41] was tested, and the “Sensitivity Limit … (0.1 OD)” value (double-stranded DNA; [12]) was 10 ng/mL and the “Sensitivity Limit … (0.01 OD)” value (double-stranded DNA; [12]) was >10 ng/mL.

For `CCCCC1=C/C(=C\c2nc3c(ccc[n+]3C)o2)c2ccccc2N1c1ccccc1.[I-]` [Compound 15], the “Sensitivity … in agarose gels” value [2] was 60 pg, the “Sensitivity … in agarose gels” value [3, 6] was 210 pg and the “Sensitivity … in agarose gels” value [3, 7] was 100 pg. The “Sensitivity … in agarose gels” value [3, 8] was 100 pg, the “Sensitivity … in agarose gels” value [3, 9] was 480 pg and the “Sensitivity … in agarose gels” value [3, 10] was 240 pg. For the same compound, the “Sensitivity Limit … (0.1 OD)” value (double-stranded DNA; [13]) was 10 ng/mL and the “Sensitivity Limit … (0.01 OD)” value (double-stranded DNA; [13]) was 0.5 ng/mL.

With `CN1C=C/C(=C\c2nc3cc[n+](C)cc3o2)c2ccccc21.[I-]` [Compound 31] the “Sensitivity Limit … (0.1 OD)” value (double-stranded DNA; [13]) was 50 ng/mL and the “Sensitivity Limit … (0.01 OD)” value (double-stranded DNA; [13]) was 2.0 ng/mL.

For `CCN(CC)C1=C/C(=C\c2nc3c(ccc[n+]3C)o2)c2ccccc2N1c1ccccc1` [Compound 30], the “Sensitivity Limit … (0.1 OD)” value (double-stranded DNA; [13]) was 10 ng/mL and the “Sensitivity Limit … (0.01 OD)” value (double-stranded DNA; [13]) was 1.0 ng/mL.

With `CN1C=C/C(=C\c2nc3c(cc(Cl)c[n+]3C)s2)c2ccccc21.[I-]` [Compound 39] the “Sensitivity Limit … (0.1 OD)” value (double-stranded DNA; [12]) was 10 ng/mL and the “Sensitivity Limit … (0.01 OD)” value (double-stranded DNA; [12]) was 5.0 ng/mL.

With `CN1C=C/C(=C\c2nc3c(cc(Cl)c[n+]3C)s2)c2ccccc21.[I-]` [Compound 40] the “Sensitivity Limit … (0.1 OD)” value (double-stranded DNA; [12]) was 10 ng/mL and the “Sensitivity Limit … (0.01 OD)” value (double-stranded DNA; [12]) was 1.0 ng/mL.

`C[n+]1cccc2oc(/C=C3\C=C(c4ccccc4)N(c4ccccc4)c4ccccc43)nc21.[I-]` [Compound 17] was tested, and the “Sensitivity Limit … (0.1 OD)” value (double-stranded DNA; [13]) was <10 ng/mL and the “Sensitivity Limit … (0.01 OD)” value (double-stranded DNA; [13]) was 2.0 ng/mL.

In the case of `CN1C=C/C(=C\c2nc3c(cc(Cl)c[n+]3C)s2)c2ccccc21.[I-]` [Compound 34], the “Sensitivity Limit … (0.1 OD)” value (double-stranded DNA; [5]) is reported as <10 ng/mL and the “Sensitivity Limit … (0.01 OD)” value (double-stranded DNA; [5]) is reported as 0.2 ng/mL.

In the case of `CN1C=C/C(=C\c2sc3ncccc3[n+]2C)c2ccccc21.[I-]` [Compound 33], the “Sensitivity Limit … (0.1 OD)” value (double-stranded DNA; [5]) is reported as 100 ng/mL and the “Sensitivity Limit … (0.01 OD)” value (double-stranded DNA; [5]) is reported as >10 ng/mL.

For `C[n+]1cccc2oc(/C=C3\C=C(Cl)N(c4ccccc4)c4ccccc43)nc21` [Compound 29], the “Sensitivity Limit … (0.1 OD)” value (double-stranded DNA; [5]) was 100 ng/mL and the “Sensitivity Limit … (0.01 OD)” value (double-stranded DNA; [5]) was 2.0 ng/mL.

With `CN1C=C/C(=C\c2nc3c(ccc[n+]3C)o2)c2ccccc21.Cc1ccc(S(=O)(=O)[O-])cc1` [Compound 48] the “Sensitivity Limit … (0.1 OD)” value (double-stranded DNA; [11]) was 10 ng/mL and the “Sensitivity Limit … (0.01 OD)” value (double-stranded DNA; [11]) was >10 ng/mL.

`CN1C=C/C(=C\c2nc3c(cc(Cl)c[n+]3C)s2)c2ccccc21.[I-]` [Compound 37] was tested, and the “Sensitivity Limit … (0.1 OD)” value (double-stranded DNA; [12]) was 10 ng/mL and the “Sensitivity Limit … (0.01 OD)” value (double-stranded DNA; [12]) was 2.0 ng/mL.

In the case of `CN1C=C/C(=C\c2nc3c(cc(Cl)c[n+]3C)s2)c2ccccc21.[I-]` [Compound 35], the “Sensitivity Limit … (0.1 OD)” value (double-stranded DNA; [5]) is reported as 10 ng/mL and the “Sensitivity Limit … (0.01 OD)” value (double-stranded DNA; [5]) is reported as 0.5 ng/mL.

For `CN1C=C/C(=C\c2nc3c(cc(Cl)c[n+]3C)s2)c2ccccc21.[I-]` [Compound 38], the “Sensitivity Limit … (0.1 OD)” value (double-stranded DNA; [12]) was 200 ng/mL and the “Sensitivity Limit … (0.01 OD)” value (double-stranded DNA; [12]) was 5.0 ng/mL.

For `CN1C(Sc2ccccn2)=C/C(=C\c2nc3c(ccc[n+]3C)s2)c2ccccc21.[I-]` [Compound 32], the “Sensitivity Limit … (0.1 OD)” value (double-stranded DNA; [13]) was 10 ng/mL and the “Sensitivity Limit … (0.01 OD)” value (double-stranded DNA; [13]) was 1.0 ng/mL.

In the case of `CCN1C(c2ccccc2)=C/C(=C\c2nc3c(ccc[n+]3C)o2)c2cc3c(cc21)OCO3.[I-]` [Compound 18], the “Sensitivity Limit … (0.1 OD)” value [1, 13] is reported as <10 ng/mL, the “Sensitivity Limit … (0.01 OD)” value [1, 13] is reported as >10 ng/mL and the “Sensitivity … in agarose gels” value [2] is reported as 60 pg. The “Sensitivity … in agarose gels” value [3, 6] was 210 pg, the “Sensitivity … in agarose gels” value [3, 7] was 100 pg and the “Sensitivity … in agarose gels” value [3, 8] was 50 pg. For the same compound, the “Sensitivity … in agarose gels” value [3, 10] was 120 pg, the “Sensitivity Limit … (0.1 OD)” value [4, 13] was 10 ng/mL and the “Sensitivity Limit … (0.01 OD)” value [4, 13] was 1.2 ng/mL. The “Sensitivity Limit … (0.1 OD)” value (double-stranded DNA; [13]) was <10 ng/mL and the “Sensitivity Limit … (0.01 OD)” value (double-stranded DNA; [13]) was 0.2 to 0.5 ng/mL.

With `COc1ccc2c(c1)N(C)C(c1ccccc1)=C/C2=C\c1nc2c(ccc[n+]2C)o1.[I-]` [Compound 21] the “Sensitivity … in agarose gels” value [2] was 60 pg, the “Sensitivity … in agarose gels” value [3, 6] was 420 pg and the “Sensitivity … in agarose gels” value [3, 7] was 50 pg. For the same compound, the “Sensitivity … in agarose gels” value [3, 8] was 50 pg, the “Sensitivity … in agarose gels” value [3, 10] was 120 pg and the “Sensitivity Limit … (0.1 OD)” value (double-stranded DNA; [13]) was <10 ng/mL. The “Sensitivity Limit … (0.01 OD)” value (double-stranded DNA; [13]) was 0.2 ng/mL.

For `COC1=C/C(=C\c2nc3c(ccc[n+]3C)o2)c2ccccc2N1C` [Compound 54], the “Sensitivity Limit … (0.1 OD)” value (double-stranded DNA; [11]) was 10 ng/mL and the “Sensitivity Limit … (0.01 OD)” value (double-stranded DNA; [11]) was 1.0 ng/mL.
